Target: T1, Human skin fibroblasts (Homo sapiens, UniProt P04035)
T1 sequence (P04035 1-888): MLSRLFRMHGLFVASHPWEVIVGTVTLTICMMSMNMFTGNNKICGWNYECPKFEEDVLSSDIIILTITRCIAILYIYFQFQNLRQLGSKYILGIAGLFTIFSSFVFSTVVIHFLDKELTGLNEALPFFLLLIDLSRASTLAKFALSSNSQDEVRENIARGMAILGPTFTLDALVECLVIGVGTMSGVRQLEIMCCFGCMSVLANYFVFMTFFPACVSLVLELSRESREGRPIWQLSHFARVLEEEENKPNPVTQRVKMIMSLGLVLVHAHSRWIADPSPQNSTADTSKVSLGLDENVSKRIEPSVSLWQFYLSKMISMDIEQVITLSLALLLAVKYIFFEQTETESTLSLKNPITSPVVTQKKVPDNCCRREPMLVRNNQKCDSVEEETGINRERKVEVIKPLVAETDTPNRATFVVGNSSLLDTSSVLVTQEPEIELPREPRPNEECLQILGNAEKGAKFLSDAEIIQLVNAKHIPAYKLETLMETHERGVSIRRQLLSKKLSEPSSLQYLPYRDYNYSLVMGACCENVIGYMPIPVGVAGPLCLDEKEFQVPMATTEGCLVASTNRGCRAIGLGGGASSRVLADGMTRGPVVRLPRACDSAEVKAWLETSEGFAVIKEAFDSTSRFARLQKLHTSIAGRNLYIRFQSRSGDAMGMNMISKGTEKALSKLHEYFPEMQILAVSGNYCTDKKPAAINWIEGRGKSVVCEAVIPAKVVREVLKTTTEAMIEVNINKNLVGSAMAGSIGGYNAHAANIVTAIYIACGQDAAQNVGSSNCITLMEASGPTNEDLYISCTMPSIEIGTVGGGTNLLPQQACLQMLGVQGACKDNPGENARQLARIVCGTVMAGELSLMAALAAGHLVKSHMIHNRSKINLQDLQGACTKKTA
Assay: Cholesterol Synthesis in Human Skin Fibroblasts (14C-acetate incorporation into cholesterol)
Type: cell-based
Settings: inhibition of 14C-acetate incorporation into cholesterol; 30 minutes preincubation, 4 hours with acetate; read-out: Fibroblasts 150
Procedure: 3) Cholesterol Synthesis in Human Skin Fibroblasts
Compound selectivity favoring greater inhibitory activity in hepatic tissue would be an attribute for a cholesterol synthesis inhibitor. Therefore, in addition to evaluating cholesterol synthesis inhibitors in hepatocytes, these compounds are also tested for their activity as inhibitors of cholesterol synthesis in cultured fibroblasts. […]
a. Human Skin Fibroblast Cultures
Human skin fibroblasts (passage 7-27) are grown in Eagles' minimal essential medium (EM) containing 10% fetal calf serum. For each experiment, stock cultures are trypsonized to disperse the cell monolayer, counted, and plated in 35 mm tissue culture wells (5x10^S cells/2.0 ml). […]
Induced fibroblast cultures are washed with EMEM100 (Earle's minimal essential medium). […] The organic phase is dried under nitrogen, and the residue resuspended in chloroform:methanol (2:1) (100 µl), and the total sample spotted on silica gel (LK6D) thin-layer plates, V, VO and analyzed as described for hepatocytes.
Inhibition of cholesterol synthesis is determined by comparing the percent of label in the cholesterol peak from control and drug-treated cultures. Results are expressed as 150 values, and are derived from composite dose response curves from two or more experiments. A 95% confidence interval for the 150 value is also calculated from the composite dose response curves.

IC50: 2500 nM
Substance: (S)-4-[[[4-(4-Fluorophenyl)-1,2-bis(1-methylethyl)-5-phenyl-1H-pyrrol-3-yl]-ethynyl]hydroxyphosphinyl]-3-hydroxybutanoic acid, dilithium salt [SQ 34,346]
